The data set in a line: blood concentration and clearance after injection in tumor-bearing rats. Type of data set: in vivo, Fischer female rats. Particulars: high iodine dose (1,344 mgl/mL). As for the experimental part: Contrast-enhanced mammography was performed with a commercial digital mammography system (Senographe 2000D, GE Healthcare) at 49 kVp and 63 mAs with a rhodium target and an extra copper filter of 0.3 mm thickness. These settings were used to shape the x-rays to have optimal energies for iodine. […] Initial studies were performed with high doses of the nano-probe to obtain a vascular image. A pre-contrast image (FIG. 2(a)) and post-contrast images were acquired 1, 5, 10, and 15 minutes after tail vein injection of the nano-probe. […] In the case of an adult human, this would correspond to a dose of about 654 mL of the nano-probe (assuming a blood volume of five liters), which is prohibitively large for use in humans. However, this high dose was used to clearly visualize the blood vessels that the mammography system was capable of detecting.
Another control group was injected with a conventional iodinated agent (iohexol) at an iodine dose equivalent to the high dose of 1,344 mgl/mL of the nano-probe. (See FIG. 7). […] (See FIG. 8).

One molecule from US8642013B2, “Nano-scale contrast agents and methods of use” (priority 2008, dated 2014) can be followed below.

For `CC(=O)N(CC(O)CO)c1c(I)c(C(=O)NCC(O)CO)c(I)c(C(=O)NCC(O)CO)c1I` (stereo not shown) [iohexol], the clearance result was “rapidly cleared via the kidneys”.
